Test results published in patent US6699854B2, “Anti-cancer compounds” (Cyclacel Limited, priority 2000, dated 2004).

Target: T1, CDK2/cyclin E (Homo sapiens, UniProt P24941)
T1 construct: His; made in house; host or cells: Sf9 insect cells (baculovirus)
Experiment: CDK2/cyclin E kinase assay (GST-Rb phosphorylation);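 also: enzyme source: His-tagged CDK2/cyclin E co-expressed in Sf9 insect cells via baculovirus, then purified by metal-chelate chromatography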
Assay type: biochemical
Conditions: Table 2, further results for CDK2/cyclin E inhibition; read-out: CDK2/cyclin E

| Structure (SMILES) | IC50 |
| --- | --- |
| O=[N+]([O-])c1cccc(Nc2nccc(-c3cc(Cl)sc3Cl)n2)c1 [Compound 9, {4-(2,5-Dichloro-thiophen-3-yl)-pyrimidin-2-yl}-(3-nitro-phenyl)-amine] | 4.7 µM |
| Cc1nc(C)c(-c2ccnc(Nc3ccc(F)cc3F)n2)s1 [Compound 22, (2,4-Difluoro-phenyl)-{4-(2,4-dimethyl-thiazol-5-yl)-pyrimidin-2-yl}-amine] | 0.02 µM |
| Cc1nc(C)c(-c2ccnc(Nc3cc(F)cc(F)c3)n2)s1 [Compound 23, (3,5-Difluoro-phenyl)-{4-(2,4-dimethyl-thiazol-5-yl)-pyrimidin-2-yl}-amine] | 1.7 µM |
| Cc1nc(C)c(-c2ccnc(Nc3cccc(Br)c3)n2)s1 [Compound 30, (3-Bromo-phenyl)-{4-(2,4-dimethyl-thiazol-5-yl)-pyrimidin-2-yl}-amine] | 0.94 ± 0.49 µM |
| Cc1nc(C)c(-c2ccnc(Nc3cccc(I)c3)n2)s1 [Compound 33, {4-(2,4-Dimethyl-thiazol-5-yl)-pyrimidin-2-yl}-(3-iodo-phenyl)-amine] | 0.2 µM |
| Cc1nc(C)c(-c2ccnc(Nc3ccc(F)c(F)c3)n2)s1 [Compound 36, (3,4-Difluoro-phenyl)-{4-(2,4-dimethyl-thiazol-5-yl)-pyrimidin-2-yl}-amine] | 0.5 ± 0.2 µM |
| COc1ccccc1Nc1nccc(-c2sc(C)nc2C)n1 [Compound 37, {4-(2,4-Dimethyl-thiazol-5-yl)-pyrimidin-2-yl}-(2-methoxy-phenyl)-amine] | 6.4 ± 0.1 µM |
| Cc1nc(C)c(-c2cc(Br)nc(Nc3cccc([N+](=O)[O-])c3)n2)s1 [Compound 54, {4-Bromo-6-(2,4-dimethyl-thiazol-5-yl)-pyrimidin-2-yl}-(3-nitro-phenyl)-amine] | 0.01 µM |
| CNc1nc(C)c(-c2ccnc(Nc3cccc(F)c3)n2)s1 [Compound 103, (3-Fluoro-phenyl)-{4-(4-methyl-2-methylamino-thiazol-5-yl)-pyrimidin-2-yl}-amine] | 1.2 µM |
| CNc1nc(C)c(-c2ccnc(Nc3cccc(Cl)c3)n2)s1 [Compound 108, (3-Chloro-phenyl)-{4-(4-methyl-2-methylamino-thiazol-5-yl)-pyrimidin-2-yl}-amine] | 0.8 µM |
| Cc1nc(N)sc1-c1ccnc(Nc2ccc(O)cc2)n1 [Compound 114, 4-{4-(2-Amino-4-methyl-thiazol-5-yl)-pyrimidin-2-ylamino}-phenol] | 1.4 µM |
| CCN(CC)CCOCc1cccc(Nc2nccc(-c3sc(C)nc3C)n2)c1 [Compound 118, {3-(2-Diethylamino-ethoxymethyl)-phenyl}-{4-(2,4-dimethyl-thiazol-5-yl)-pyrimidin-2-yl}-amine] | 0.7 µM |

System: A549
Experiment: 72-h MTT cytotoxicity assay, A549
Assay type: cell-based, human
Conditions: Homo sapiens, A549, read-out: A549
Description: Selected compounds from the above examples were subjected to a standard cellular proliferation assay using a range of different human tumour cell lines. Standard 72-h MTT (thiazolyl blue; 3-{4,5-dimethylthiazol-2-yl}-2,5-diphenyltetrazolium bromide) assays were performed (Haselsberger, K.; Peterson, D. C.; Thomas, D. G.; Darling, J. L. Anti Cancer Drugs 1996, 7, 331-8; Loveland, B. E.; Johns, T. G.; Mackay, I. R.; Vaillant, F.; Wang, Z. X.; Hertzog, P. J. Biochemistry International 1992, 27, 501-10). Human tumour cell lines were obtained from the ATCC (American Type Culture Collection, 10801 University Boulevard, Manessas, Va. 20110-2209, USA).

| Structure (SMILES) | IC50 |
| --- | --- |
| CNc1nc(C)c(-c2ccnc(Nc3ccc(O)cc3)n2)s1 [Compound 63, 4-{4-(4-Methyl-2-methylamino-thiazol-5-yl)-pyrimidin-2-ylamino}-phenol] | 0.8 ± 0.2 µM |

Same assay, conditions: Homo sapiens, Table 4, additional data for cytotoxicity assay using the A549 cell line; read-out: A549

| Structure (SMILES) | IC50 |
| --- | --- |
| Clc1cc(-c2ccnc(Nc3ccccc3Cl)n2)c(Cl)s1 [Compound 2, (2-Chloro-phenyl)-{4-(2,5-dichloro-thiophen-3-yl)-pyrimidin-2-yl}-amine] | 41 ± 8 µM |
| Clc1ccc(Nc2nccc(-c3cc(Cl)sc3Cl)n2)cc1 [Compound 3, (4-Chloro-phenyl)-{4-(2,5-dichloro-thiophen-3-yl)-pyrimidin-2-yl}-amine] | 5 ± 4 µM |
| Clc1cccc(Nc2nccc(-c3cc(Cl)sc3Cl)n2)c1 [Compound 4, (3-Chloro-phenyl)-{4-(2,5-dichloro-thiophen-3-yl)-pyrimidin-2-yl}-amine] | 16 ± 11 µM |
| Cc1nc(C)c(-c2ccnc(Nc3cccc(Cl)c3)n2)s1 [Compound 7, (3-Chloro-phenyl)-{4-(2,4-dimethyl-thiazol-5-yl)-pyrimidin-2-yl}-amine] | 2.8 µM |
| Cc1cc(-c2ccnc(Nc3ccccc3Cl)n2)c(C)s1 [Compound 15, (2-Chloro-phenyl)-{4-(2,5-dimethyl-thiophen-3-yl)-pyrimidin-2-yl}-amine] | 6 µM |
| Cc1nc(C)c(-c2ccnc(Nc3ccc(F)cc3F)n2)s1 [Compound 22, (2,4-Difluoro-phenyl)-{4-(2,4-dimethyl-thiazol-5-yl)-pyrimidin-2-yl}-amine] | 20 ± 1 µM |
| Cc1nc(C)c(-c2ccnc(Nc3cc(Cl)cc(Cl)c3)n2)s1 [Compound 24, (3,5-Dichloro-phenyl)-{4-(2,4-dimethyl-thiazol-5-yl)-pyrimidin-2-yl}-amine] | 5 µM |
| Cc1nc(C)c(-c2ccnc(Nc3ccc(Cl)cc3Cl)n2)s1 [Compound 25, (2,4-Dichloro-phenyl)-{4-(2,4-dimethyl-thiazol-5-yl)-pyrimidin-2-yl}-amine] | 1.5 µM |
| Cc1nc(C)c(-c2ccnc(Nc3cccc(C(F)(F)F)c3)n2)s1 [Compound 26, {4-(2,4-Dimethyl-thiazol-5-yl)-pyrimidin-2-yl}-(3-trifluoromethyl-phenyl)-amine] | 3.3 µM |
| Cc1nc(C)c(-c2ccnc(Nc3ccccc3C(F)(F)F)n2)s1 [Compound 27, {4-(2,4-Dimethyl-thiazol-5-yl)-pyrimidin-2-yl}-(2-trifluoromethyl-phenyl)-amine] | 3.8 µM |
| Cc1nc(C)c(-c2ccnc(Nc3cccc(Br)c3)n2)s1 [Compound 30, (3-Bromo-phenyl)-{4-(2,4-dimethyl-thiazol-5-yl)-pyrimidin-2-yl}-amine] | 6.4 ± 0.05 µM |
| Cc1nc(C)c(-c2ccnc(Nc3ccccc3I)n2)s1 [Compound 32, {4-(2,4-Dimethyl-thiazol-5-yl)-pyrimidin-2-yl}-(2-iodo-phenyl)-amine] | 23 µM |
| Cc1nc(C)c(-c2ccnc(Nc3cccc(I)c3)n2)s1 [Compound 33, {4-(2,4-Dimethyl-thiazol-5-yl)-pyrimidin-2-yl}-(3-iodo-phenyl)-amine] | 61 ± 55 µM |
| Cc1nc(C)c(-c2ccnc(Nc3cccc(F)c3)n2)s1 [Compound 35, {4-(2,4-Dimethyl-thiazol-5-yl)-pyrimidin-2-yl}-(3-fluoro-phenyl)-amine] | 4.2 µM |
| COc1ccccc1Nc1nccc(-c2sc(C)nc2C)n1 [Compound 37, {4-(2,4-Dimethyl-thiazol-5-yl)-pyrimidin-2-yl}-(2-methoxy-phenyl)-amine] | 25 µM |
| Cc1nc(C)c(-c2ccnc(Nc3cccc(O)c3)n2)s1 [Compound 40, 3-{4-(2,4-Dimethyl-thiazol-5-yl)-pyrimidin-2-ylamino}-phenol] | 0.3 µM |
| Cc1nc(C)c(-c2ccnc(Nc3ccc(O)cc3)n2)s1 [Compound 41, 4-{4-(2,4-Dimethyl-thiazol-5-yl)-pyrimidin-2-ylamino}-phenol] | 0.02 µM |
| Cc1nc(C)c(-c2ccnc(NS(=O)(=O)c3cccc([N+](=O)[O-])c3)n2)s1 [Compound 42, N-{4-(2,4-Dimethyl-thiazol-5-yl)-pyrimidin-2-yl}-3-nitro-benzenesulfonamide] | 56 µM |
| Cc1nc(C)c(-c2ccnc(Nc3cccc(N)c3)n2)s1 [Compound 47, N-{4-(2,4-Dimethyl-thiazol-5-yl)-pyrimidin-2-yl}-benzene-1,3-diamine] | 1.8 ± 1.4 µM |
| Cc1nc(-c2ccccc2)sc1-c1ccnc(Nc2ccc(F)c(F)c2)n1 [Compound 59, (3,4-Difluoro-phenyl)-{4-(4-methyl-2-phenyl-thiazol-5-yl)-pyrimidin-2-yl}-amine] | 22 ± 21 µM |
| Cc1nc(C)c(-c2cc(-c3ccc(C(F)(F)F)cc3)nc(Nc3ccc(Cl)cc3)n2)s1 [Compound 65, (4-Chloro-phenyl)-{4-(2,4-dimethyl-thiazol-5-yl)-6-(4-trifluoromethyl-phenyl)-pyrimidin-2-yl}-amine] | 55 ± 50 µM |
| COc1cc(-c2cc(-c3sc(C)nc3C)nc(Nc3ccc(F)cc3)n2)cc(OC)c1O [Compound 69, 4-{6-(2,4-Dimethyl-thiazol-5-yl)-2-(4-fluoro-phenylamino)-pyrimidin-4-yl}-2,6-dimethoxy-phenol] | 12 ± 5 µM |
| Cc1nc(C)c(-c2cc(-c3ccc(O)cc3)nc(Nc3ccc(F)cc3)n2)s1 [Compound 70, 4-{6-(2,4-Dimethyl-thiazol-5-yl)-2-(4-fluoro-phenylamino)-pyrimidin-4-yl}-phenol] | 3 ± 1 µM |
| CNc1nc(C)c(-c2ccnc(Nc3cccc(O)c3)n2)s1 [Compound 85, 3-{4-(4-Methyl-2-methylamino-thiazol-5-yl)-pyrimidin-2-ylamino}-phenol] | 0.4 µM |
| CCOC(=O)c1cc(Nc2nccc(-c3sc(C)nc3C)n2)ccc1Cl [Compound 92, 2-Chloro-5-{4-(2,4-dimethyl-thiazol-5-yl)-pyrimidin-2-ylamino}-benzoic acid ethyl ester] | 4.4 ± 3 µM |
| CCOC(=O)c1cccc(Cl)c1Nc1nccc(-c2sc(C)nc2C)n1 [Compound 93, 3-Chloro-2-{4-(2,4-dimethyl-thiazol-5-yl)-pyrimidin-2-ylamino}-benzoic acid ethyl ester] | 1.1 ± 1 µM |
| COc1ccc(Nc2nccc(-c3sc(C)nc3C)n2)c(O)c1 [Compound 95, 2-{4-(2,4-Dimethyl-thiazol-5-yl)-pyrimidin-2-ylamino}-5-methoxy-phenol] | 0.05 ± 0.03 µM |
| COC(=O)c1cc(Nc2nccc(-c3sc(C)nc3C)n2)ccc1Cl [Compound 99, 2-Chloro-5-{4-(2,4-dimethyl-thiazol-5-yl)-pyrimidin-2-ylamino}-benzoic acid methyl ester] | 3.7 ± 2.7 µM |
| COC(=O)c1ccc(Nc2nccc(-c3sc(C)nc3C)n2)cc1Cl [Compound 101, 2-Chloro-4-{4-(2,4-dimethyl-thiazol-5-yl)-pyrimidin-2-ylamino}-benzoic acid methyl ester] | 0.9 ± 0.2 µM |
| CNc1nc(C)c(-c2ccnc(Nc3ccc(F)c(F)c3)n2)s1 [Compound 104, (3,4-Difluoro-phenyl)-{4-(4-methyl-2-methylamino-thiazol-5-yl)-pyrimidin-2-yl}-amine] | 4.9 ± 2.5 µM |

Same assay, conditions: Table 4, additional data for cytotoxicity assay using the A549 cell line; read-out: A549

| Structure (SMILES) | IC50 |
| --- | --- |
| Cc1nc(C)c(-c2cc(-c3ccccc3)nc(Nc3cccc([N+](=O)[O-])c3)n2)s1 [Compound 57, {4-(2,4-Dimethyl-thiazol-7-yl)-6-phenyl-pyrimidin-2-yl}-(3-nitro-phenyl)-amine] | 5.2 ± 0.4 µM |
| C=CCNc1nc(C)c(-c2ccnc(Nc3cccc([N+](=O)[O-])c3)n2)s1 [Compound 91, {4-(2-Allylamino-4-methyl-thiazol-5-yl)-pyrimidin-2-yl}-(3-nitro-phenyl)-amine] | 22.1 ± 0.2 µM |
